Patent US6951857B2, “6-Azauracil derivatives as IL-5 inhibitors” (priority 1997, dated 2005)

What was measured:
IL-5 production = assay: In vitro inhibition of IL-5 production in human blood; assay type: cell-based; conditions: test dose 1×10^−6 M; human whole blood stimulated with phytohemagglutinin, 48 hours, ELISA
Description: In Vitro Inhibition of IL-5 Production in Human Blood
Human Whole Blood Stimulation
Peripheral blood from healthy male donors was drawn into heparinized syringes (12.5 U heparin/ml). Blood samples were three-fold diluted in RMPI 1640 medium (Life Technologies, Belgium) supplemented with 2 mM L-glutamine, 100 U/ml penicillin and 100 μg/ml streptomycin, and 300 μl fractions were distributed in 24-well multidisc plates. Blood samples were preincubated (60 minutes at 37° C.) in a humidified 6% CO2-atmosphere with 100 μl of drug solvent (final concentration 0.02% dimethylsulfoxide in RPMI 1640) or with 100 μl of an appropriate dose of test compound before being stimulated by the addition of 100 μl of phytohemagglutinin HA17 (Murex, UK) at a final concentration of 2 μg/ml. After 48 hours, cell-free supernatant fluids were collected by centrifugation and stored at −70° C. until tested for the presence of IL-5.
IL-5 measurements were conducted as described in Van Wauwe et al. (1996, Inflamm Res, 45, 357-363) on page 358 using ELISA.
Table 8 lists the percentage inhibition of IL-5 production (column “% inhibition”) at a test dose of 1×10^−6 M, or in case the percentage inhibition is marked with an “*” 1×10^−5 M, for the compounds of the present invention including compounds of formula (I) which have been disclosed in U.S. Pat. No. 4,631,278 (Ref. A) or U.S. Pat. No. 4,767,760 (Ref: B) as summarized in table 7.

Row | SMILES | inhibition at 1 µM (IL-5 production) | melting point
1 | CC(C#N)(c1ccc(Cl)cc1)c1c(Cl)cc(-n2ncc(=O)[nH]c2=O)cc1Cl (racemic) [1.11, (±)-2,6-dichloro-α-(4-chlorophenyl)-4-(4,5-dihydro-3,5-dioxo-1,2,4-triazin-2(3H)-yl)-α-methylbenzeneacetonitrile] | 12% | 
2 | N#CC(c1ccc(Cl)cc1)c1ccc(-n2ncc(=O)[nH]c2=O)cc1 (stereo not drawn) [1.41, α-(4-chlorophenyl)-4-(4,5-dihydro-3,5-dioxo-1,2,4-triazin-2(3H)-yl) benzeneacetonitrile] | 13% | 206.3 °C
3 | N#CC(c1ccc(Cl)c(C(F)(F)F)c1)c1cc(-n2ncc(=O)[nH]c2=O)ccc1Cl (stereo not shown) [1.37] | 12% | 
4 | CNC(=O)C(C)(c1ccc(Cl)cc1)c1ccc(-n2ncc(=O)[nH]c2=O)cc1Cl (racemic) [1.14, (±)-2-chloro-α-(4-chlorophenyl)-4-(4,5-dihydro-3,5-dioxo-1,2,4-triazin-2(3H)-yl)-α,N-dimethylbenzeneacetamide] | 9% | 
5 | CC(C#N)(c1ccc(Cl)c(C(F)(F)F)c1)c1cc(-n2ncc(=O)[nH]c2=O)ccc1Cl (stereo not shown) [1.35] | 33% | 
6 | CC(C#N)(c1ccc(Cl)c(C(F)(F)F)c1)c1c(Cl)cc(-n2ncc(=O)[nH]c2=O)cc1Cl (racemic) [1.7, (±)-2,6-dichloro-α-[4-chloro-3-(trifluoromethyl)phenyl]-4-(4,5-dihydro-3,5-dioxo-1,2,4-triazin-2(3H)-yl)-α-methylbenzeneacetonitrile] | 92% | 
7 | CC(C(N)=S)(c1ccc(Cl)cc1)c1ccc(-n2ncc(=O)[nH]c2=O)cc1Cl (racemic) [1.21, (±)-2-chloro-α-(4-chlorophenyl)-α-methyl-4-(4,5-dihydro-3,5-dioxo-1,2,4-triazin-2(3H)-yl)benzeneethanethioamide] | 33% | 
8 | CN(C)CCCC(C#N)(c1ccc(Cl)cc1)c1ccc(-n2ncc(=O)[nH]c2=O)cc1Cl (racemic) [1.58, (±)-2-chloro-α-(4-chlorophenyl)-4-(4,5-dihydro-3,5-dioxo-1,2,4-triazin-2(3H)-yl)-α-[3-(dimethylamino)propyl]-benzeneacetonitrile] | 28% | 140 °C
9 | CON(C)C(=O)C(c1ccc(Cl)cc1)c1ccc(-n2ncc(=O)[nH]c2=O)cc1Cl (racemic) [1.6, (±)-2-chloro-α-(4-chlorophenyl)-N-methoxy-N-methyl-4-(4,5-dihydro-3,5-dioxo-1,2,4-triazin-2(3H)-yl)benzeneacetamide] | 49% | 
10 | CC(C#N)(c1ccc(Cl)c(C(F)(F)F)c1)c1cccc(-n2ncc(=O)[nH]c2=O)c1Cl (racemic) [1.36, (±)-4-chloro-α-[2-chloro-3-(4,5-dihydro-3,5-dioxo-1,2,4-triazin-2(3H)-yl)phenyl]-α-methyl-3-(trifluoromethyl)benzeneacetonitrile] | 44% | 
11 | O=C(c1nc2ccccc2s1)C(c1ccc(Cl)cc1)c1ccc(-n2ncc(=O)[nH]c2=O)cc1Cl (racemic) [1.20, (±)-2-[4-[2-(2-benzothiazolyl)-1-(4-chlorophenyl)-2-oxoethyl]-3-chlorophenyl]-1,2,4-triazin-3,5(2H,4H)-dione] | 80% | 
